The record followed here is US6486096B1, “Herbicidal compositions with acylated aminophenylsulfonylureas” (priority 1998, dated 2002).

Holding throughout (assay type): in vivo
In one series the test system is corn. As to conditions: post-emergence. The procedure:
(§1) The herbicidal activity of the active substances or active substance mixtures was scored visually with the aid of the treated parcels in comparison with untreated control parcels. Damage to and development of all above-ground parts of plants was recorded here. Scoring was carried out on a percentage scale (100% action=all plants died; 50% action=50% of the plants and green plant parts died; 0% action=no discernible action=like control parcels. The mean of the scoring values of 4 parcels in each case was taken.
(§2) Crop plants were raised outdoors under natural outdoor conditions on plots in which seeds or rhizome sections of typical harmful plants had been sown or the natural weed infestation was used. The treatment with the compositions according to the invention was carried out after the emergence of the harmful plants and the crop plants, as a rule in the 2 to 4-leaf stage; in some cases (as indicated) the application of individual active substances or active substance combinations was carried out pre-emergence (cf. Example 1) or as a sequence treatment, in some cases pre-emergence and/or post-emergence.
(§3) After the application, e.g. 2, 4, 6 and 8 weeks after application, the action of the preparations was scored visually in comparison with untreated controls (cf. score in Example 1). […] The crop plants, however, were not damaged or were only insignificantly damaged as a result of the treatment with the herbicidal compositions.

Another series deals with Digitaria sanguinalis. The series is described as follows: Herbicidal action, visual scoring. As to conditions: post-emergence, scoring 4 weeks after application. As to the method:
as §1
(§4) Seeds or rhizome pieces of monocotyledonous and dicotyledonous weeds are placed in sandy loam soil in pots, covered with soil and grown in the greenhouse under good growth conditions (temperature, humidity, water supply). Three weeks after sowing, the test plants in the three-leaf stage are treated with the compositions according to the invention. The compositions according to the invention which are formulated as wettable powders or as emulsion concentrates are sprayed in various dosages on the green parts of the plants at an application rate of 600 to 800 l of water/ha (converted). After the test plants have remained in the greenhouse for about 3 to 4 weeks under optimal growth conditions, the effect of the products is scored visually by comparison with untreated controls. When applied post-emergence, too, the compositions according to the invention have a good herbicidal activity against a broad spectrum of economically important grass weeds and broad-leaved weeds.
as §2, §3

Series [1] has as its system CHEAL = Chenopodium album. Description: Herbicidal action, visual scoring. As to conditions: Table 9, post-emergence, scoring 3 weeks after application, g of A.S./ha by row: r6 120, r7 60, r8 30, r9 15, r10 60, r11 30, r12 15, r13 30 + 30, r14 15 + 30, r15 30 + 15, r16 2000, r17 1000, r18 500, r19 30 + 1000, r20 15 + 1000, r21 30 + 500. The procedure: as §1, §4, §2, §3

The next series deals with Ipomoea purpurea. The series is described as follows: Herbicidal action, visual scoring. To be noted: Table 1, post-emergence, scoring 3 weeks after application, g of A.S./ha: 45, 60, 75, 1000, 2000, 3000, 75 + 1000. As to the method:
as §1, §4, §2, §3

Series [2] concerns POLCO = Polygonum convolvulus. The series is described as follows: Herbicidal action, visual scoring. As to conditions: Table 15; post-emergence; scoring 4 weeks after application; g of A.S./ha by row: r6 30, r7 15, r8 7.5, r9 900, r10 450, r12 600, r14 20, r16 30 + 450, r17 7.5 + 900, r18 30 + 600, r19 7.5 + 600, r20 15 + 20, r21 7.5 + 20. As to the method:
The herbicidal activity of the active substances or active substance mixtures was scored visually with the aid of the treated parcels in comparison with untreated control parcels. Damage to and development of all above-ground parts of plants was recorded here. Scoring was carried out on a percentage scale (100% action=all plants died; 50% action=50% of the plants and green plant parts died; 0% action=no discernible action=like control parcels. The mean of the scoring values of 4 parcels in each case was taken. […]
as §2, §3

In the next series the test system is SOLNI. The series is described as follows: Herbicidal action, visual scoring. As to conditions: Table 10, post-emergence, scoring 3 weeks after application, g of A.S./ha by row: r7 120, r8 60, r9 30, r10 15, r11 12, r12 6, r13 3, r14 30 + 6, r16 15 + 6, r18 30 + 3. The procedure: as §1, §4, §2, §3
The mark [3] stands for this setting: Table 9, scoring 3 weeks after application, g of A.S./ha by row: r6 120, r7 60, r8 30, r9 15, r10 60, r11 30, r12 15, r13 30 + 30, r14 15 + 30, r15 30 + 15, r16 2000, r17 1000, r18 500, r19 30 + 1000, r20 15 + 1000, r21 30 + 500.

Each structure is given as a SMILES string. Where “and” joins values, the source holds several entries; their conditions need not be identical. Equal entries are not always repeated. Where two headings read alike, the source gives them in different places.

With `CCc1cccc(CC)c1N(COC)C(=O)CCl` [(B1.1.1), alachlor], the Damage on corn in the series with corn (Table 17, scoring 4 weeks after application, g of A.S./ha by row: r6 60, r7 30, r8 15, r9 2000, r10 1000, r11 500, r12 15 + 1000, r13 30 + 500, r14 2000, r15 1000, r16 500, r17 30 + 500, r18 15 + 500, r19 15 + 1000) turned out to be 0%. Besides, the “Herbicidal action Digitaria sanguinalis” value in the series with Digitaria sanguinalis (Table 17, g of A.S./ha by row: r6 60, r7 30, r8 15, r9 2000, r10 1000, r11 500, r12 15 + 1000, r13 30 + 500, r14 2000, r15 1000, r16 500, r17 30 + 500, r18 15 + 500, r19 15 + 1000, 500 g A.S./ha) is on record as 40%; with Digitaria sanguinalis (Table 17, g of A.S./ha by row: r6 60, r7 30, r8 15, r9 2000, r10 1000, r11 500, r12 15 + 1000, r13 30 + 500, r14 2000, r15 1000, r16 500, r17 30 + 500, r18 15 + 500, r19 15 + 1000, 1000 g A.S./ha) it was 50%; in the series with Digitaria sanguinalis (Table 17, g of A.S./ha by row: r6 60, r7 30, r8 15, r9 2000, r10 1000, r11 500, r12 15 + 1000, r13 30 + 500, r14 2000, r15 1000, r16 500, r17 30 + 500, r18 15 + 500, r19 15 + 1000, 2000 g A.S./ha), 65%.

For the molecule `CCc1cccc(C)c1N(C(=O)CCl)C(C)COC` (stereo not shown) [(B1.1.2), metolachlor], the Damage on corn in the series on corn (setting [3]) was 0%. For the same molecule, in series [1], the “Herbicidal action CHEAL” value was 0%.

On to `CCNc1nc(Cl)nc(NC(C)C)n1` [(B1.2.1), atrazine], for which the Damage on corn in the series on corn (Table 1, scoring 3 weeks after application, g of A.S./ha: 45, 60, 75, 1000, 2000, 3000, 75 + 1000) is given as 0%. For the same molecule, the entries for the “Herbicidal action against Ipomoea purpurea” value in the series with Ipomoea purpurea (1000 g active substance per ha), with Ipomoea purpurea (2000 g active substance per ha) and with Ipomoea purpurea (3000 g active substance per ha) were 70%, 85% and 90%, respectively.

Take `CCNc1nc(Cl)nc(NC(C)(C)C#N)n1` [(B1.2.3), cyanazine]: the Damage on corn in the series on corn (Table 14, scoring 4 weeks after application, g of A.S./ha by row: r6 30, r7 15, r8 7.5, r9 2200, r10 1100, r11 550, r12 7.5 + 2200, r13 7.5 + 1100) is 12% and 5% and 15%.

As for `CC(C)N(C(=O)COc1nnc(C(F)(F)F)s1)c1ccc(F)cc1` [(B1.2.7), fluthiamid], the Damage on corn with corn (Table 15, scoring 4 weeks after application, g of A.S./ha by row: r6 30, r7 15, r8 7.5, r9 900, r10 450, r12 600, r14 20, r16 30 + 450, r17 7.5 + 900, r18 30 + 600, r19 7.5 + 600, r20 15 + 20, r21 7.5 + 20) is recorded as 0%. Further, the “Herbicidal action Polygonum convolvulus” value in series [2] worked out at 25%.

`COc1cc(OC)nc(NC(=O)NS(=O)(=O)c2ncccc2C(=O)N(C)C)n1` [(B1.3.1), nicosulfuron]: in the series on corn (setting [3]), the Damage on corn is 0%. In addition, the “Herbicidal action CHEAL” value came out at 55% in series [1] (15 g active substance/ha), 65% in series [1] (30 g active substance/ha) and 90% in series [1] (60 g active substance/ha).

For the molecule `CCS(=O)(=O)c1cccnc1S(=O)(=O)NC(=O)Nc1nc(OC)cc(OC)n1` [(B1.3.2), rimsulfuron], the “Herbicidal action SOLNI” value in the series with SOLNI (3 g active substance per ha) amounted to 35%; in the series on SOLNI (6 g active substance per ha) it was 45%; in the series with SOLNI (12 g active substance per ha), 60%.

As to `CS(=O)(=O)c1ccc(C(=O)C2C(=O)CCCC2=O)c(Cl)c1` [(B1.4.2), sulcotrione], in the series with corn (Table 11, scoring 3 weeks after application, g of A.S./ha by row: r6 120, r7 60, r8 30, r9 15, r10 2000, r11 1000, r12 500, r13 30 + 1000, r14 15 + 1000, r15 30 + 500, r16 600, r17 300, r18 150, r19 30 + 300, r20 15 + 300, r21 30 + 150), the Damage on corn came to 0%.

Take `CS(=O)(=O)c1cc(Cl)ccc1C(=O)c1cnoc1C1CC1` [(B1.4.6), isoxachlortole]: the Damage on corn in the series with corn (Table 18, scoring 4 weeks after application, g of A.S./ha by row: r6 45, r7 22.5, r8 12.5, r9 25, r12 12.5 + 25, r13 12.5 + 12.5) was found to be 12%. The “Herbicidal action Digitaria sanguinalis” value came to 30% in the series with Digitaria sanguinalis (Table 18, g of A.S./ha by row: r6 45, r7 22.5, r8 12.5, r9 25, r10 12.5, r12 12.5 + 25, r13 12.5 + 12.5, 12.5 g of A.S./ha) and 45% in the series with Digitaria sanguinalis (Table 18, g of A.S./ha by row: r6 45, r7 22.5, r8 12.5, r9 25, r10 12.5, r12 12.5 + 25, r13 12.5 + 12.5, 25 g of A.S./ha).

As for `COc1cc(OC)n2nc(S(=O)(=O)Nc3c(Cl)ccc(C)c3Cl)nc2n1` [(B1.5.1), metosulam], in series [2], the “Herbicidal action Polygonum convolvulus” value is reported as 55%.

As for `O=C(O)c1nc(Cl)ccc1Cl` [(B2.3.6), clopyralid], in the series on corn (Table 19, scoring 3 weeks after application, g of A.S./ha by row: r6 60, r7 30, r8 15, r9 120, r10 60, r11 30, r12 30 + 30, r13 30 + 60, r14 60 + 30), the Damage on corn was 0% and 3%.

Turning to `COc1nc(NC(=O)NS(=O)(=O)c2ccccc2C(F)(F)F)nc(C(F)(F)F)n1` [(B2.4.5), tritosulfuron], the Damage on corn with corn (Table 7, scoring 3 weeks after application, g of A.S./ha by row: r6 15, r7 30, r8 45, r9 60, r10 2.5, r11 5, r12 15 + 2.5, r13 15 + 5) is 1%.

As for `Cc1cc(Cl)ccc1OCC(=O)O` [(B2.5.2), MCPA], the Damage on corn in the series on corn (Table 16, scoring 4 weeks after application, g of A.S./ha: 60, 30, 15, 1500, 750, 375, 30 + 750, 30 + 375, 15 + 750, 60 + 375) is 6% and 0% and 10%.
